Patent US7977371B2, “Pyrrole derivative having ureido group and aminocarbonyl group as substituents” (Santen Pharmaceutical Co., Ltd., priority 2007, dated 2011)

tested on: TNF-α-induced IL-6 production in normal human skin fibroblast-derived CCD-1059Sk cells; experiment: Test for measurement of inhibitory activity against TNF-α-induced IL-6 production; type: cell-based; settings: Homo sapiens, CCD-1059Sk, 16 h, test compound at 10 μM, TNF-α stimulation 16 hours, inhibition ratio of 100% or more is indicated as 100%
Description: 1. Test for Measurement of Inhibitory Activity Against IL-6 Production
An inhibitory effect on TNF-α-induced IL-6 production in normal human skin fibroblast-derived CCD-1059Sk cells (ATCC No. CRL-2072) was evaluated. The amount of IL-6 was determined by the homogeneous time-resolved fluorescence method using HTRF™ Human IL-6 kit (Cat. No. 62IL6PEB, manufactured by CIS-Bio international, Inc.). Specific test methods will be described below.
(Preparation of Test Compound Solution)
After a test compound was dissolved in dimethyl sulfoxide, the resulting solution was diluted with D-MEM medium containing 0.1% heat-inactivated fetal bovine serum, 0.1 mM MEM non-essential amino acid solution, 100 U/mL penicillin and 100 μg/mL streptomycin (hereinafter referred to as “medium”), whereby a 40 μM test compound solution was prepared.
(Test Method and Measurement Method)
1) CCD-1059Sk cells prepared at a density of 3×10^5 cells/mL were inoculated in a 384-well plate in an amount of 10 μL per well such that the cell density was 3×10^3 cells/well.
2). After the plate was incubated at 37° C. for several hours in a CO2 incubator, 5 μL of the test compound was added to each well.
3) After the plate was incubated at 37° C. for 1 hour in a CO2 incubator, 5 μL of a 40 ng/mL TNF-α solution was added to each well.
4) After the plate was incubated at 37° C. for 16 hours in a CO2 incubator, 10 μL of a cryptate-labeled anti-IL-6 antibody and an XL665-labeled anti-IL-6 antibody containing potassium fluoride was added to each well.
5) After the plate was incubated at room temperature for several hours, a fluorescence intensity ratio (665 nm/620 nm) was determined for each well using a multimode plate reader Analyse™ HT (manufactured by Molecular Device Corporation) and Criterion Host software version 2.00 (manufactured by Molecular Device Corporation), and then, the amount of IL-6 was calculated.
6) The same procedures as in the above 1) to 5) were performed except that 0.4% dimethyl sulfoxide was added in place of the test compound, and the obtained result was designated as the control.
7) The same procedures as in the above 1) to 5) were performed except that 0.4% dimethyl sulfoxide and the medium were added in place of the test compound and the TNF-α solution, respectively, and the obtained result was designated as the background.
(Calculation Formula of IL-6 Production Inhibition Ratio)
An IL-6 production inhibition ratio (%) was calculated from the following formula. IL-6 Production Inhibition Ratio (%)=100×{1−[(Amount of IL-6 for Test Compound)−(Amount of IL-6 for Background)/(Amount of IL-6 for Control)−(Amount of IL-6 for Background)]} (Evaluation Results)

NC(=O)Nc1[nH]c(-c2ccc(F)cc2)c(Cl)c1C(N)=O [Compound 7-3] and NC(=O)Nc1[nH]c(-c2cccc(Cl)c2)c(C=O)c1C(N)=O [Compound 17-1, 2-Aminocarbonylamino-5-(3-chlorophenyl)-4-formylpyrrole-3-carboxamide] are the same in inhibition at 10 µM: 98% for the first, 98% for the second.

NC(=O)Nc1[nH]c(-c2cc(Cl)ccc2OCCN2CCCCC2)cc1C(N)=O [Compound 8-14] and NC(=O)Nc1[nH]c(-c2cc(Cl)ccc2OCCN2CCC(CCO)CC2)cc1C(N)=O [Compound 8-16] are the same in inhibition at 10 µM: 100% for the first, 100% for the second.

First: CC1CCN(CCOc2ccc(F)cc2-c2cc(C(N)=O)c(NC(N)=O)[nH]2)CC1 [Compound 8-13]
Second: CC1CCN(CCOc2ccccc2-c2cc(C(N)=O)c(NC(N)=O)[nH]2)CC1 [Compound 8-10]
The inhibition at 10 µM of the first is higher: 100% for the first, 98% for the second.

First: NC(=O)Nc1[nH]c(-c2cccc(C#CCO)c2)cc1C(N)=O [Compound 10-3]
Second: N#Cc1cccc(-c2cc(C(N)=O)c(NC(N)=O)[nH]2)c1 [Compound 1-39, 2-Aminocarbonylamino-5-(3-cyanophenyl) pyrrole-3-carboxamide]
The inhibition at 10 µM of the first is higher: 100% for the first, 99% for the second.

First: NC(=O)Nc1[nH]c(-c2ccccc2O)cc1C(N)=O [Compound 3-1, 2-Aminocarbonylamino-5-(2-hydroxyphenyl)pyrrole-3-carboxamide]
Second: Cc1ccccc1-c1cc(C(N)=O)c(NC(N)=O)[nH]1 [Compound 1-42, 2-Aminocarbonylamino-5-(2-methylphenyl) pyrrole-3-carboxamide]
The inhibition at 10 µM of the first is higher: 95% for the first, 94% for the second.

Going from CCOc1ccccc1-c1cc(C(N)=O)c(NC(N)=O)[nH]1 [Compound 4-11, 2-Aminocarbonylamino-5-(2-ethoxyphenyl)pyrrole-3-carboxamide] to N#CCOc1ccccc1-c1cc(C(N)=O)c(NC(N)=O)[nH]1 [Compound 4-1, 2-Aminocarbonylamino-5-(2-cyanomethyloxyphenyl)pyrrole-3-carboxamide], the inhibition at 10 µM falls from 97% to 96%.

First: NC(=O)Nc1[nH]c(-c2ccoc2)cc1C(N)=O [Compound 9-2]
Second: NC(=O)Nc1[nH]c(-c2ccccc2)cc1C(N)=O [Compound 1-4, 2-Aminocarbonylamino-5-phenylpyrrole-3-carboxamide]
The inhibition at 10 µM of the first is lower: 87% for the first, 88% for the second.

CN(CCO)CCOc1ccc(F)cc1-c1cc(C(N)=O)c(NC(N)=O)[nH]1 [Compound 8-17] and CSCCOc1ccc(F)cc1-c1cc(C(N)=O)c(NC(N)=O)[nH]1 [Compound 8-18] are the same in inhibition at 10 µM: 100% for the first, 100% for the second.

Going from CN(C)CCOc1ccccc1-c1cc(C(N)=O)c(NC(N)=O)[nH]1 [Compound 4-31, 2-Aminocarbonylamino-5-[2-(2-dimethylaminoethyloxy)phenyl]pyrrole-3-carboxamide] to CN(C)CCCOc1ccccc1-c1cc(C(N)=O)c(NC(N)=O)[nH]1 [Compound 4-30, 2-Aminocarbonylamino-5-[2-(3-dimethylaminopropyloxy)phenyl]pyrrole-3-carboxamide], the inhibition at 10 µM rises from 98% to 99%.

First: NC(=O)Nc1[nH]c(-c2cccc(F)c2)cc1C(N)=O [Compound 1-28, 2-Aminocarbonylamino-5-(3-fluorophenyl) pyrrole-3-carboxamide]
Second: CCSc1cccc(-c2cc(C(N)=O)c(NC(N)=O)[nH]2)c1 [Compound 1-44, 2-Aminocarbonylamino-5-(3-ethylthiophenyl) pyrrole-3-carboxamide]
The inhibition at 10 µM of the first is higher: 97% for the first, 92% for the second.

First: CCOC(=O)c1ccc(-c2cc(C(N)=O)c(NC(N)=O)[nH]2)cc1 [Compound 1-30, 2-Aminocarbonylamino-5-(4-ethoxycarbonylphenyl) pyrrole-3-carboxamide]
Second: N#Cc1ccc(-c2cc(C(N)=O)c(NC(N)=O)[nH]2)cc1 [Compound 1-15, 2-Aminocarbonylamino-5-(4-cyanophenyl) pyrrole-3-carboxamide]
The inhibition at 10 µM of the first is higher: 90% for the first, 80% for the second.

Going from NC(=O)Nc1[nH]c(-c2ccccc2OCCCF)cc1C(N)=O [Compound 4-24, 2-Aminocarbonylamino-5-[2-(3-fluoropropyloxy)phenyl] pyrrole-3-carboxamide] to NC(=O)Nc1[nH]c(-c2ccccc2OCCCN2CCCC2)cc1C(N)=O [Compound 8-1, 2-Aminocarbonylamino-5-[2-[3-(pyrrolidin-1-yl)propyloxy]phenyl]pyrrole-3-carboxamide], the inhibition at 10 µM falls from 99% to 97%.

CCOc1ccc(F)cc1-c1cc(C(N)=O)c(NC(N)=O)[nH]1 [Compound 4-47, 2-Aminocarbonylamino-5-(2-ethoxy-5-fluorophenyl)pyrrole-3-carboxamide] and COc1ccc(F)cc1-c1cc(C(N)=O)c(NC(N)=O)[nH]1 [Compound 1-19, 2-Aminocarbonylamino-5-(5-fluoro-2-methoxyphenyl)pyrrole-3-carboxamide] are the same in inhibition at 10 µM: 100% for the first, 100% for the second.

First: COc1ccc(-c2cc(C(N)=O)c(NC(N)=O)[nH]2)cc1Cl [Compound 1-37, 2-Aminocarbonylamino-5-(3-chloro-4-methoxyphenyl)pyrrole-3-carboxamide]
Second: COc1ccc(OC)c(-c2cc(C(N)=O)c(NC(N)=O)[nH]2)c1 [Compound 1-17, 2-Aminocarbonylamino-5-(2,5-dimethoxyphenyl) pyrrole-3-carboxamide]
The inhibition at 10 µM of the first is higher: 98% for the first, 96% for the second.

C#CCOc1ccc(Cl)cc1-c1cc(C(N)=O)c(NC(N)=O)[nH]1 [Compound 4-50, 2-Aminocarbonylamino-5-[5-chloro-2-(2-propynyloxy)phenyl]pyrrole-3-carboxamide] and CCOc1ccc(Cl)cc1-c1cc(C(N)=O)c(NC(N)=O)[nH]1 [Compound 4-48, 2-Aminocarbonylamino-5-(5-chloro-2-ethoxyphenyl)pyrrole-3-carboxamide] are the same in inhibition at 10 µM: 100% for the first, 100% for the second.

First: NC(=O)Nc1[nH]c(-c2ccccn2)cc1C(N)=O [Compound 1-2, 2-Aminocarbonylamino-5-(pyridin-2-yl) pyrrole-3-carboxamide]
Second: Cc1ccc(-c2cc(C(N)=O)c(NC(N)=O)[nH]2)s1 [Compound 1-41, 2-Aminocarbonylamino-5-(5-methylthiophen-2-yl) pyrrole-3-carboxamide]
The inhibition at 10 µM of the first is lower: 85% for the first, 96% for the second.

Going from NC(=O)Nc1[nH]c(-c2cc(Cl)ccc2Cl)cc1C(N)=O [Compound 1-27, 2-Aminocarbonylamino-5-(2,5-dichlorophenyl) pyrrole-3-carboxamide] to NC(=O)Nc1[nH]c(-c2ccc(Cl)s2)cc1C(N)=O [Compound 1-48, 2-Aminocarbonylamino-5-(5-chlorothiophen-2-yl)pyrrole-3-carboxamide], the inhibition at 10 µM falls from 100% to 98%.

First: COc1cc(C)c(Cl)cc1-c1cc(C(N)=O)c(NC(N)=O)[nH]1 [Compound 1-24, 2-Aminocarbonylamino-5-(5-chloro-2-methoxy-4-methylphenyl)pyrrole-3-carboxamide]
Second: Cc1cc(-c2cc(C(N)=O)c(NC(N)=O)[nH]2)c(C)s1 [Compound 1-51, 2-Aminocarbonylamino-5-(2,5-dimethylthiophen-3-yl)pyrrole-3-carboxamide]
The inhibition at 10 µM of the first is higher: 99% for the first, 96% for the second.

Going from NC(=O)Nc1[nH]c(-c2ccccc2OCCN2CCOCC2)cc1C(N)=O [Compound 8-3] to CC(=O)Oc1ccccc1-c1cc(C(N)=O)c(NC(N)=O)[nH]1 [Compound 5-1, 2-Aminocarbonylamino-5-(2-acetoxyphenyl)pyrrole-3-carboxamide], the inhibition at 10 µM falls from 95% to 94%.
